We go through one compound from paper PMC2232895 (The Journal of General Physiology, 2000).

The experiment addresses T1, bovine rod cGMP-gated channel alpha subunit (retinal CNG channel) (Bos taurus, UniProt Q00194).
T1 sequence (Q00194 1-690): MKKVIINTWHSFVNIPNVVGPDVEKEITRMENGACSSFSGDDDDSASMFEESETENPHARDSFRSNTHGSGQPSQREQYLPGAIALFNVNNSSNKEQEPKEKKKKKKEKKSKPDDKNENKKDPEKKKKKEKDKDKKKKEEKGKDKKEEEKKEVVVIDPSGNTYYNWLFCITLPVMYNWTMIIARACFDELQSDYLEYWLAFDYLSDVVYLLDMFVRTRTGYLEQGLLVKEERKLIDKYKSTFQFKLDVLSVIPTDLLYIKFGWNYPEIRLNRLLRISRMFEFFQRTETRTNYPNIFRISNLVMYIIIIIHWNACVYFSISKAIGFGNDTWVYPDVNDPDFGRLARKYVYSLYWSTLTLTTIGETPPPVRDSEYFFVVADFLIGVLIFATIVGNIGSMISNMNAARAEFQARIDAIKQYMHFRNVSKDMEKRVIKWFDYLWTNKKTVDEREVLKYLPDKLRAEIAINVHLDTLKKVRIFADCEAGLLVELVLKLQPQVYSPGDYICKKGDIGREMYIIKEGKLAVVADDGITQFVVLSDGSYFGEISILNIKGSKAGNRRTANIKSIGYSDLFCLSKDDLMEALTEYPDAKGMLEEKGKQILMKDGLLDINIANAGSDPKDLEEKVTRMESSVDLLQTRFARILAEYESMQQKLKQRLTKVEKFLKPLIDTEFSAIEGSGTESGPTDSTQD
The experiment is classed as cell-based.

For orientation: Kd means the concentration at which binding is half-saturated. High values mean lower affinity, low ones higher affinity. Regarding `NCCCNCCCCNCCCN` [spermine], the Kd turned out to be 510 ± 40 nM.
